# Entries after “also recorded” stand apart in the source; their conditions may differ.
# What was measured:
# [1] = test system: advanced glycation products from bovine serum albumin and glucose; assay: Antiglycating activity (AGE fluorescence, bovine serum albumin and glucose); format: biochemical; details: BSA 1 mg/ml, glucose 0.36 M, 60 °C, 24 hrs; read-out: IC50 of formation of advanced glycation products
# Method: The glycation reaction was modeled using 1 mg/ml bovine serum albumin (Chemmed, Russia) and 0.36 M glucose (Vekton, Russia) in 50 mM phosphate buffer solution (PBS, pH 7.4) at 60 °C. After 24 hrs, albumin was precipitated using trichloroacetic acid (10% final concentration) and centrifugation (15 000 rpm, 4 min). The supernatant was removed by aspiration, and the residue was dissolved in 50 mM PBS (pH 10.5). Aliquots of 300 µl were transferred to a black flat-bottom 96-well microplate. AGE fluorescence was registered using Infinite M200 Pro (Tecan, Austria) microplate reader at excitation/emission wavelengths of 370/440 nm. Signals were normalized using blank samples containing BSA and the test compound in the appropriate concentration without the glucose. When normalized, the activity is expressed as the AGE fluorescence coefficient, determined by the formula: Flu=10^log10A-log10B-1, where A and B correspond to the absolute fluorescence values of the glucose-containing and mean glucose-free sample.
# Activity percentage was calculated using the formula: A%=1-FluSample/FluControl×100%, where Flu(Sample) and Flu(Control) correspond to the normalized fluorescence coefficients of experimental and control samples. Experiments were run in 5 independent replicates.
# NHE-1 = molecular target: T1, NHE-1 (Oryctolagus cuniculus, UniProt P23791); assay: NHE-1 inhibition assay on rabbit platelets (platelet shape change after acidification with sodium propionate, laser aggregometer); format: cell-based; details: 10 nM, rabbit platelet-rich plasma, decimal commas; read-out: NHE-1 inhibition at 10 nM, m ± SD, n = 6 (%)
# T1 construct: endogenous in cells; host or cells: rabbit platelets in platelet-rich plasma (male rabbits)
# T1 sequence (P23791 whole entry): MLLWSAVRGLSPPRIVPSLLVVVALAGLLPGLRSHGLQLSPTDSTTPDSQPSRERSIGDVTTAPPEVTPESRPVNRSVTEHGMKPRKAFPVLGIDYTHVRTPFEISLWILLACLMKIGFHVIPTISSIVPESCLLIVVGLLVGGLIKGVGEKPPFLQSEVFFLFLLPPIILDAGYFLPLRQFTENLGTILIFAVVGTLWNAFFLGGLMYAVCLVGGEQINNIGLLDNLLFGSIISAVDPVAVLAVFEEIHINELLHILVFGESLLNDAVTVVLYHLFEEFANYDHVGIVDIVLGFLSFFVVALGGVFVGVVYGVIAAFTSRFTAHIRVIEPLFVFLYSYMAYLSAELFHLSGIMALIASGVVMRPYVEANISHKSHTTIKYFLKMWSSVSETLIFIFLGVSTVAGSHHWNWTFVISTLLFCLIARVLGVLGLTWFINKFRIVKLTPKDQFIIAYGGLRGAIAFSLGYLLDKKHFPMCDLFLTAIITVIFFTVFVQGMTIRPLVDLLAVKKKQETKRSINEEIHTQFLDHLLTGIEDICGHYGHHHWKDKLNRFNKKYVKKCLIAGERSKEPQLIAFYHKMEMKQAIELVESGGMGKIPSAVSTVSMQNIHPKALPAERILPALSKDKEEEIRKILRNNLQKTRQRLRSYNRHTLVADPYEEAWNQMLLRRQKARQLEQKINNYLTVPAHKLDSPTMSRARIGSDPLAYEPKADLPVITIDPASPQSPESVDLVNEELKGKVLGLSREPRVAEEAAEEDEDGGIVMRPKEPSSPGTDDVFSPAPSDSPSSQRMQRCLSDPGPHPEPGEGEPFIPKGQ
# Method: Evaluation of NHE-1 inhibition was carried out on rabbit platelets by the known method[39],[40]. The experiments were carried out on 15 male rabbits weighing 3.0-4.0 kg. Platelet-rich plasma (PRP) was obtained by centrifuging blood with 3.8% sodium citrate (1:10) at 1000 rpm for 12 min (Multi centrifuge CM 6M, Latvia). Platelet shapeshifting due to acidification was followed with a laser aggregometer BIOLA-220 LA (Russia). Test compounds (10 μl, 10 nM final concentration) were added to 200 μl of PRP 5 min in a cuvette before the addition of sodium propionate solution, incubated with constant stirring using a magnetic stirrer (800 rpm, 37 °C). To control samples for NHE-1 activation, a buffer solution containing sodium propionate was added to 200 μL of PRP (600 μL, 135 mM sodium propionate, 20 mM HEPES, 1 mM CaCI2, 1 mM MgCI2, 10 mM glucose; pH 6.7). The change in light transmission at pH 7.4, 37 °C was monitored in a Krebs solution (600 μL, 120 mM NaCl, 4.8 mM KCl, 1.2 mM KH2PO4, 2.5 mM MgSO4, 25 mM NaHCO3, 2.6 mM CaCl2, 5.4 mM glucose; pH 7.4). Test compounds were added to a final concentration of 10 nM to the cuvette into 200 μl of PRP 5 min before adding the sodium propionate solution, incubated with constant stirring using a magnetic stirrer (800 rpm, 37 °C). NHE-1 inhibitors zoniporide, rimeporide, amiloride were used as reference drugs. Assays were run in 6 independent series.
# [2] = test system: primary peritoneal macrophages of C57BL/6J mice; assay: Nitric oxide synthesis (nitrite, Griess reagent) in LPS-stimulated peritoneal macrophages; format: cell-based; details: 100 μM
# Method: (§1) Peritoneal macrophages (PM) were isolated from the peritoneal exudate of 30 male C57bl/6j mice. To accumulate PM, 1 ml of 3% peptone solution was injected intraperitoneally. After 3 days the mice were euthanized by cervical dislocation. Cells of peritoneal exudate were obtained by aseptically washing the abdominal cavity with 5 ml of sterile Hanks’s solution (+ 4-6 °C) without calcium and magnesium ions. The total number and viability of cells were assessed in a Goryaev counting chamber (Russia) with a 0.4% trypan blue staining (Sigma-Aldrich, USA). The cell concentration was adjusted to 1.0×10^6 cells/ml in DMEM (Gibco) supplemented with 2 mM L-glutamine (Gibco), 10% heat-inactivated fetal bovine serum (BioClot, Germany), 100 U/ml penicillin and […] streptomycin (Gibco) and plated 200 μl/well in 96-well transparent plates (SPL Life Sciences Co., Ltd., Korea). It was left for 2 h at 37°C in a humidified atmosphere with 5% CO2, after which the wells were washed to remove non-adherent cells. After 24 hours of incubation, 20 μl of the supernatant was removed and 20 μl of solutions of test compounds were added 30 min before E. coli O127:B8 LPS (100 ng/ml final concentration). Experiments were run in 3 independent replicates.
# The accumulation of nitrite anion (a stable end product of NO decomposition produced by iNOS) in supernatants was determined using a standard Griess reagent. Briefly, 50 μl of supernatants collected 22 hours after incubation of PM with test and control compounds were mixed with 50 μl of 1% sulfonamide in 2.5% H3PO4 and 50 μl of 0.1% N-(1-naphthyl) ethylenediamine in 2,5% H3PO4. After incubation at 23 °C for 10 min in an orbital shaker, the optical density was determined at a wavelength of 550 nm with a microplate reader Infinite M200 PRO (Tecan, Austria).
# [3] = test system: primary peritoneal macrophages of C57BL/6J mice; assay: Cytotoxicity study (LDH activity in the medium) in peritoneal macrophages; format: cell-based; details: 100 μM, peritoneal macrophages
# Method: as §1
# (§2) The activity of lactate dehydrogenase (LDH) in a cell culture medium served as a marker of membrane permeability and cell death. Aliquotes of supernatants were taken after 24 h of inoculation with test compounds, mixed with 250 μl of […] NADH solution in 54 mM phosphate buffered saline (pH 7.5). Then, 25 μl of a 6.48 mM pyruvate solution was added to the mixture. The optical density was followed at a wavelength of 340 nm for 20 min. Conversion of optical density into cell viability was carried out according to a standard curve (DMSO-treated cells as 100% and 0.01% Triton X-100-treated cells as 0% viable cells).
# rabbit platelets = assay: ADP-induced platelet aggregation assay in rabbit platelet-rich plasma; format: cell-based; details: 100 μM, ADP 5 μM
# Method: Functional activity of platelets was determined on a two-channel laser analyzer of platelet aggregation "BIOLA-220 LA" (Russia) as described previously. The experiments were carried out on 6 male rabbits weighing 3.5–4 kg. To prepare platelet-rich plasma (PRP) venous blood was taken from the ear marginal vein of a rabbit, stabilized with a 3.8% sodium citrate solution in a ratio of 9:1 and centrifuged for 10 min at 1500 rpm. PRP (300 μL) and a solution of the test compound at a concentration of 100 μM were sequentially introduced into the cell of the aggregometer. The samples were incubated in thermostated cells of the aggregometer at 37 °C for 5 min. To induce aggregation adenosine-5-diphosphoric acid (ADP, Sigma, USA) at a final concentration of 5 μM, was added to the cuvette. Acetylsalicylic acid (Shandong Xinhua Pharmaceutical Co., Ltd., China) was used as a reference drug. Experiments were run in 5 independent replicates.
# IL-6 secretion = assay: Interleukin-6 secretion (ELISA) from LPS-stimulated peritoneal macrophages; format: cell-based, mice; details: male, C57BL/6J, mouse, primary peritoneal macrophages stimulated with LPS; CC50 versus IC50 of IL-6 secretion; read-out: selectivity of IL-6 inhibition over cytotoxicity
# Method: as §1
# (§3) Cell supernatant was collected and centrifuged at 1000 g for 20 min in a 2-16PK Sigma centrifuge (Germany). The concentration of IL-6 was determined by ELISA using a commercial kit (Cloud-clone ELISA kit) with a microplate reader Infinite M200 PRO (Tecan, Austria).
# [4] = test system: primary peritoneal macrophages of C57BL/6J mice; assay: as above; format: cell-based
# Method: as §1, §3
# [5] = Cytotoxicity study (LDH activity in the medium) in peritoneal macrophages; format: cell-based; details: male, C57BL/6J, mouse, primary peritoneal macrophages; murine peritoneal macrophages, LDH
# Method: as §1, §2
# ICR mice = assay: Tail suspension test (antidepressant activity); format: in vivo; details: intragastrically 30 min before test, dose equimolar to 2.6 mg/kg amiloride
# Method: The experiment was carried out on 36 male ICR mice weighing 22-25 g, divided into groups of 6 animals each under room lighting (300 lux). […] In experiments, test substances were administered intragastrically 30 min before the start of the test. Experimental groups received test compounds in an equimolar dose to the comparison drug amiloride. Animals of the remaining groups were treated with 2.6 mg/kg amiloride, 10 mg/kg amitriptyline, or 8 mg/kg imipramine. Distilled water was administered to the control group. The time of immobilization of the animals was recorded.
inhibition at 0.01 µM (NHE-1) [%],"IC50 ([4]; Mus musculus, Peritoneal macrophage, LPS-stimulated murine macrophages, read-out: IC50 of IL-6 synthesis/secretion) [µM]",melting point [°C],SMILES,IC50 [1] [µM],inhibition of the synthesis of nitric oxide [2],effect on cell viability [3],antiplatelet activity versus acetylsalicylic acid (rabbit platelets),selectivity ratio (IL-6 secretion),"secretion of interleukin 6 ([4]; LPS-stimulated macrophages, screening (Fig. 4))",CC50 at 24 h [5] [µM],antidepressant activity (ICR mice)
,,,"N=C(N)NN [aminoguanidine, reference compound]",4520,,,,,,,
25.8,,,"Nc1nc(Cn2cnc3ccc(Br)cc3c2=O)n[nH]1 [Compound 6b, 3-[(5-Amino-1H-1,2,4-triazol-3-yl)methyl]-6-bromoquinazolin-4(3H)-one]",506,statistically significantly inhibit,absence of a statistically significant effect on cell viability,"exceeded the activity of the reference drug, acetylsalicylic acid",,,,
12.9,24.1,262 to 265,"Nc1nnc(Cn2c(=O)c3ccccc3n(Cc3ccccc3)c2=O)[nH]1 [Compound 3i, 3-[(5-Amino-4H-1,2,4-triazol-3-yl)methyl]-1-benzylquinazoline-2,4(1H,3H)-dione]",,,,,4 to 6,suppressed,146,antidepressant activity similar to amiloride; also recorded: antidepressant activity comparable with amiloride

# Reference: publication PMC8692498, “Synthesis and multifaceted pharmacological activity of novel quinazoline NHE-1 inhibitors” (Scientific Reports, 2021)
